Consider one molecule from patent US10927350B2, “Methods for generating stem cell-derived beta cells and uses thereof” (President and Fellows of Harvard College, priority 2014, dated 2021).

The test system of the test is endocrine progenitor cells directed to differentiate into SC-β cells. Nature of the test: Stimulation index (glucose stimulated insulin secretion) of SC-β cells generated from endocrine progenitor cells in the presence of a JNK inhibitor. It counts as cell-based, human. To be noted: Stimulation index=[insulin@20 mM glucose]/[insulin@2 mM glucose]; Relative Stim Index=Stim Index/Stim Index of Control; versus SC-β cells generated in the absence of the JNK inhibitor; inhibitor added to Step 6 (FIG. 1, FIG. 2C). As for the experimental part:
Stimulation index=[insulin@20 mM glucose]/[insulin@2 mM glucose]. Relative Stim Index=Stim Index/Stim Index of Control.
FIG. 2C is a schematic illustrating an exemplary method for generating SC-β cells by adding a JNK inhibitor to Step 6 of the exemplary protocol shown in FIG. 2B.
The methods of the present invention contemplate contacting cells (e.g., endocrine progenitor cells or precursors thereof) with effective amounts of one or more agents that decrease the level and/or activity of JNK. An “effective amount” of an agent (or composition containing such agent) refers to the amount sufficient to achieve a desired effect, e.g., when delivered to a cell or subject according to a selected administration form, route, and/or schedule. As will be appreciated by those of ordinary skill in this art, the absolute amount of a particular agent or composition that is effective may vary depending on such factors as the desired biological or pharmacological endpoint, the agent to be delivered, the target tissue, etc. Those of ordinary skill in the art will further understand that an “effective amount” may be contacted with cells or administered in a single dose, or the desired effect may be achieved by use of multiple doses. An effective amount of a composition may be an amount sufficient to reduce the severity of or prevent one or more symptoms or signs of a disorder (e.g., diabetes). […]

With `O=C1c2ccccc2-c2n[nH]c3cccc1c23` [SP600125, Anthra[1,9-cd]pyrazol-6(2H)-on], the “Relative stimulation index of generated SC-β cells” value is recorded as “greater stimulation index”.
